Results from patent US8507219B2, “Method of treating inflammation with statins” (MUSC Foundation for Research Development, priority 1997, dated 2013).

Tests used:
[1] = system: TNF-α production in rat primary astrocytes; test: LPS-induced TNF-α production (ELISA) in rat primary astrocytes; assay type: cell-based; settings: forskolin 10 μM; 8-Br-cAMP 100 μM; rolipram 20 μM; H-89 2 μM; myristoylated PKI 0.4 μM
Experimental: (§1) Determination of TNF-α and IL-1β in culture supernatants Cells were stimulated with LPS in serum-free media for 24 h in the presence or absence of forskolin or rolipram, and concentrations of TNF-α and IL-1β were measured in culture supernatants by using high-sensitivity enzyme-linked immunosorbent assay (R&D Systems, USA) according to the manufacturer's instructions.

[2] = system: IL-1β production in rat primary astrocytes; test: LPS-induced IL-1β production (ELISA) in rat primary astrocytes; assay type: cell-based; settings: forskolin 10 μM; 8-Br-cAMP 100 μM; rolipram 20 μM; H-89 2 μM; myristoylated PKI 0.4 μM
Experimental: as §1

[3] = system: TNF-α production in rat primary microglia; test: LPS-induced TNF-α production (ELISA) in rat primary microglia; assay type: cell-based; settings: 10 μM forskolin or 20 μM rolipram 15 min, then LPS 1.0 μg/ml, 24 h
Experimental: as §1

[4] = system: IL-1β production in rat primary microglia; test: LPS-induced IL-1β production (ELISA) in rat primary microglia; assay type: cell-based; settings: 10 μM forskolin or 20 μM rolipram 15 min, then LPS 1.0 μg/ml, 24 h
Experimental: as §1

[5] = system: cultured skin fibroblasts of X-ALD; test: β-oxidation of lignoceric acid in cultured skin fibroblasts of X-ALD; assay type: cell-based, human
[6] = system: cultured skin fibroblasts of X-ALD; test: VLCFA ratios (C26:0/C22:0, C24:0/C22:0) in X-ALD skin fibroblasts; assay type: cell-based, human
[7] = inferred from reports in mice and marmoset (Sommer et al., 1995); cited from earlier work
[8] = system: iNOS activity in rat primary astrocytes; test: iNOS activity (arginine to citrulline) in homogenates of treated rat primary astrocytes; assay type: cell-based; settings: Rattus norvegicus, Astrocyte, LPS 1 μg/ml, 24 h
Experimental: NOS activity was measured directly by production of L-[2,3,4,5-^3H]citrulline from L-[2,3,4,5-^3H] arginine (Feinstein et al., 1994a). […] Assays were carried out for 30 to 40 min and the production of L-[2,3,4,5-^3H] citrulline was linear. The reactions were stopped by addition of 800 μl of ice-cold 20 mM HEPES (pH 5.5) followed by addition of 2 ml of Dowex-50W equilibrated in the same buffer. The samples were then centrifuged and the concentration of L-[^3H]citrulline was determined in the supernatant by liquid scintillation counting.
Dose Dependence of Forskolin Inhibition of the LPS Stimulation of iNOS Astrocytes were incubated with different concentrations of forskolin 15 min before the addition of 1 μg/ml LPS, and after 24 h the iNOS activity was measured as nitrite concentrations in the supernatant and conversion of arginine to citrulline in the cellular homogenates (FIG. 1). The level of nitrite and iNOS activity were inhibited to a similar degree at all the concentrations of forskolin tested. […] . […] This may be due to the fact that PKA was already completely activated in extracts of cells incubated with 10 μM forskolin. The PKA activity increased with the increase in forskolin concentration. The reciprocal relationship of production of NO and iNOS activity with PKA activity supports the conclusion that PKA plays a pivotal role in the regulation of iNOS expression in astrocytes.

PKA = PKA activity (Kemptide phosphorylation) in rat primary astrocytes; assay type: cell-based; settings: optimal concentration of forskolin, LPS 1.0 μg/ml, 1 h; taken as 100%
[9] = system: control human skin fibroblasts; test: β-oxidation of lignoceric acid in control human skin fibroblasts; assay type: cell-based; settings: 72 h; forskolin 4 μM; 1,9 dideoxy forskolin 4 μM; 8-Br-cAMP 50 μM; H-89 1 μM; myristoylated PKI 0.2 μM; Control 565.2 ± 48.3
control skin fibroblasts = test: VLCFA ratios in control skin fibroblasts; assay type: cell-based, human; settings: two weeks forskolin
Experimental: Measurement of VLCFA in Fibroblasts Fatty acid methyl ester (FAME) was prepared as described previously by Lepage and Roy (1986) with modifications. Fibroblast cells, suspended in HBSS, were disrupted by sonication to form a homogeneous solution. An aliquot (200 μl) of this solution was transferred to a glass tube and […] heptacosanoic (27:0) acid was added as internal standard and lipids were extracted by Folch partition. Fatty acids were transesterified with acetyl chloride (200 μl) in the presence of methanol and benzene (4:1) for 2 h at 100° C. The solution was cooled down to room temperature followed by addition of 5 ml 6% potassium carbonate solution at ice-cooled temperature. Isolation and purification of FAME were carried out as detailed by Dacremont et al. (1995). […]

Row | SMILES | LPS-stimulated production of TNF-α [1] | LPS-stimulated production of IL-1β [2] | Production of TNF-α [3] | Production of IL-1β [4] | Lignoceric acid β-oxidation ([5]; 72 h, forskolin 4 μM, 8-Br-cAMP 50 μM, rolipram 10 μM, H-89 1 μM, myristoylated PKI 0.2 μM) | increase of the oxidation of lignoceric acid ([5]; rolipram, two weeks, X-ALD fibroblasts with mutation or deletion) | ratios of C26:0/C22:0 and C24:0/C22:0 / level of VLCFA ([6]; about 15 days of treatment) | crossing of the blood brain barrier [7] | inhibition at 0.1 µM ([8]; forskolin 0.1 μM (lowest dose with significant effect)) | inhibition at 10 µM ([8]; forskolin 10 μM) | PKA activity (PKA) | Lignoceric acid β-oxidation [9] | days of treatment until the ratios of C26:0/C22:0 and C24:0/C22:0 decreased to the normal level ([6]; X-ALD fibroblasts, forskolin 4 μM, lovastatin 5 μM, combination of lovastatin and NaPA) | ratio of C26:0/C22:0 (control skin fibroblasts; from 0.04) | ratio of C24:0/C22:0 (control skin fibroblasts; from 1.23)
1 | COc1ccc(C2CNC(=O)C2)cc1OC1CCCC1 (centres unmarked) [Rolipram] | inhibited the LPS-stimulated production | inhibited the LPS-stimulated production | 1.2 ± 0.09 ng/24 h/mg protein | 2.3 ± 0.3 ng/24 h/mg protein | stimulated lignoceric acid β-oxidation | 50 to 65% | normalized the levels of VLCFA in these cell lines | does cross the blood brain barrier |  |  |  |  |  |  | 
2 | C=C[C@@]1(C)CC(=O)[C@]2(O)[C@@]3(C)[C@@H](O)CCC(C)(C)[C@@H]3[C@H](O)[C@H](OC(C)=O)[C@@]2(C)O1 [forskolin] |  |  | 0.9 ± 0.1 ng/24 h/mg protein | 1.9 ± 0.2 ng/24 h/mg protein |  |  |  |  | 30% | ~90% | 74.4 ± 9.4 pmol/min/mg | 885.3 ± 62.1 pmol/h/mg protein | 12 to 15 days | 0.029 | 1.12
